Laboratory results published in publication PMC6934184, “Selective DNA-PKcs inhibition extends the therapeutic index of localized radiotherapy and chemotherapy” (The Journal of Clinical Investigation, 2019).

Target: T1, CAMK2D (CaMKII delta) (Homo sapiens, UniProt Q13557)
T1 construct: purchased Thermo Fisher Scientific (Life Technologies) SelectScreen
Experiment: SelectScreen Z'LYTE
Format: biochemical
In short: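 SelectScreen broad panel; activity (Z'LYTE, Adapta) plus binding formats. ATP: Km app for CSF1R Z'LYTE; 10 for CAMK1 Adapta. Readout = % per kinase.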

T1 sequence (Q13557 whole entry): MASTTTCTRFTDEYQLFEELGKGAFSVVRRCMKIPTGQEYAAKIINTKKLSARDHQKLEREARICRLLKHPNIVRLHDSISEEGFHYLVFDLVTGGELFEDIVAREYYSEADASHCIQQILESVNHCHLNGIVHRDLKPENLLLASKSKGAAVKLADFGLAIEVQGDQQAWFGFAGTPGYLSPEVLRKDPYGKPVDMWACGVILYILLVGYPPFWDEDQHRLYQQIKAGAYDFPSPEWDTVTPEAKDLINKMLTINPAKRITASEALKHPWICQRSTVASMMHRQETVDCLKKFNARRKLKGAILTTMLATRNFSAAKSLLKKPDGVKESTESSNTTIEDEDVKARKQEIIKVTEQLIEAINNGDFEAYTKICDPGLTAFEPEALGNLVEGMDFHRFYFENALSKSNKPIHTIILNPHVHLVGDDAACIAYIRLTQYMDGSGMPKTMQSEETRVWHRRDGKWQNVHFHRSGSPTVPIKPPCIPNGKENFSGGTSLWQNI

Structure (SMILES): CN(C(=O)CN1CCOCC1)c1ccc2sc3c(-c4cccc5c(=O)cc(N6CC7CCC(C6)O7)oc45)cccc3c2c1 [NU5455]
- inhibition at 1 µM: 9.3%
